Here are results for one molecule from publication PMC10516623 (2023).

Structures are written as SMILES.

Experiment [1] concerns P1x_A14C/C26U (DNA:RNA, riboswitch, nucleotides 1-52 of strand 1 RNA, 53-70 DNA; strand 2 DNA) GAUACCUGUCACACCGGCUUCCUGGUGUGACGAGGUGACCUCAGUGGAGCAAACCGCTGCCGTCGCTCCG/CGGAGCGACGGCAGCGGT
Nature of the experiment: smFRET titration, two-state isotherm (pre-folded). The settings on record: 100 mM KCl, 2 mM MgCl2, 40 mM HEPES pH 7.5, immobilised RNA.

The test system of experiment [2] is Wild-typed SAM/SAH riboswitch (Cy3-U20, 3' DNA extension, annealed to anchor DNA) (DNA:RNA, riboswitch, nucleotides 1-52 of strand 1 RNA, 53-70 DNA; strand 2 DNA) GAUACCUGUCACAACGGCUUCCUGGCGUGACGAGGUGACCUCAGUGGAGCAAACCGCTGCCGTCGCTCCG/CGGAGCGACGGCAGCGGT
Kind of experiment: smFRET titration, two-state isotherm (pre-folded). The settings on record: 100 mM KCl, 2 mM MgCl2, 40 mM HEPES pH 7.5, immobilised RNA, text b38 gives 10 μM.

Experiment [3] has as its system P1x_A14P (DNA:RNA, riboswitch, purine (adenine lacking N6) at 14 (replaces A) of strand 1; nucleotides 1-52 RNA, 53-70 DNA; strand 2 DNA) GAUACCUGUCACAACGGCUUCCUGGCGUGACGAGGUGACCUCAGUGGAGCAAACCGCTGCCGTCGCTCCG/CGGAGCGACGGCAGCGGT
Kind of experiment: smFRET titration, two-state isotherm (pre-folded). The conditions noted are these: 100 mM KCl, 2 mM MgCl2, 40 mM HEPES pH 7.5, immobilised RNA.

Experiment [4] deals with PK_C18A/G49U/C50U (DNA:RNA, riboswitch, nucleotides 1-52 of strand 1 RNA, 53-70 DNA; strand 2 DNA) GAUACCUGUCACAACGGAUUCCUGGCGUGACGAGGUGACCUCAGUGGAUUAAACCGCTGCCGTCGCTCCG/CGGAGCGACGGCAGCGGT
Nature of the experiment: smFRET titration, two-state isotherm (pre-folded). The conditions noted are these: 100 mM KCl, 2 mM MgCl2, 40 mM HEPES pH 7.5, immobilised RNA.

Experiment [5] concerns P1x_C26Z (DNA:RNA, riboswitch, zebularine at 26 (replaces C) of strand 1; nucleotides 1-52 RNA, 53-70 DNA; strand 2 DNA) GAUACCUGUCACAACGGCUUCCUGGCGUGACGAGGUGACCUCAGUGGAGCAAACCGCTGCCGTCGCTCCG/CGGAGCGACGGCAGCGGT
Kind of experiment: smFRET titration, two-state isotherm (pre-folded). The conditions noted are these: 100 mM KCl, 2 mM MgCl2, 40 mM HEPES pH 7.5, immobilised RNA, text b44 gives 41 μM.

The test system of experiment [6] is Wild-typed SAM/SAH riboswitch (Cy3-U20, 3' DNA extension, annealed to anchor DNA) (DNA:RNA, riboswitch, nucleotides 1-52 of strand 1 RNA, 53-70 DNA; strand 2 DNA) GAUACCUGUCACAACGGCUUCCUGGCGUGACGAGGUGACCUCAGUGGAGCAAACCGCTGCCGTCGCTCCG/CGGAGCGACGGCAGCGGT
Nature of the experiment: smFRET vectorial folding (Rep-X unwinding), two-state isotherm. The conditions noted are these: 100 mM KCl, 2 mM MgCl2, 40 mM HEPES pH 7.5, 2 mM ATP, RNA released from cDNA heteroduplex, non-equilibrium.

Experiment [7] deals with T_G16P (DNA:RNA, riboswitch, purine (adenine lacking N6) at 16 (replaces G, written as G) of strand 1; nucleotides 1-52 RNA, 53-70 DNA; strand 2 DNA) GAUACCUGUCACAACGGCUUCCUGGCGUGACGAGGUGACCUCAGUGGAGCAAACCGCTGCCGTCGCTCCG/CGGAGCGACGGCAGCGGT
Nature of the experiment: smFRET titration, two-state isotherm (pre-folded). The conditions noted are these: 100 mM KCl, 2 mM MgCl2, 40 mM HEPES pH 7.5, immobilised RNA.

Consider `C[S+](CC[C@H](N)C(=O)O)C[C@H]1O[C@@H](n2cnc3c(N)ncnc32)[C@H](O)[C@@H]1O` (stereo partly shown), for which the dissociation constant (Kd) in experiment [1] was 593 µM; in experiment [2] it was 11 µM; in experiment [3], 61 µM; in experiment [4] it was > 1000 µM; in experiment [5], 42 µM; in experiment [7], 607 µM. Besides, the “apparent Kd” value in experiment [6] was 108 µM.
